According to patent US5041426A, “Immune system enhancing 3-β-d-ribofuranosylthiazolo[4,5-d]pyridimine nucleosides and nucleotides” (priority 1988, dated 1991):
Values joined by “and” are separate entries in the source; they are usually repeats but may differ in a detail not shown here. Equal values may be shown once.

Experiments:
[1] = system: Reticulum-cell Sarcoma M5076; test: Mean life span of mice with metastatic reticulum-cell sarcoma; assay type: in vivo, mouse
Description: Effect of drug treatment on the mean life span of host animals implanted with metastatic reticulum-cell sarcoma M5076 was measured using the same test protocol as per example 54. The host animals were drug dosed for 20 days as per example 54, however, as opposed to example 54 they were monitored for survival.
^a Fragments of reticulumcell sarcoma M5076 (≈14 mg) were
implanted sc in the left flank of BDF1 female mice and ip bolus
injections of drug were initiated 24 hrs later. The drug was delivered on
the basis of 0.01 ml/g mouse weight. Control mice received a 0.09%
solution of NaCl delivered on the same basis. Six mice were used per
treatment group. Treatment give qd for days 1-20 and animals monitored
after treatment for survival.

[2] = system: Friend Leukemia virus; test: Friend Leukemia virus induced spleenomegaly; assay type: in vivo; conditions: further test
Description: As is evident from the above tables antiviral activity against a variety of viruses is seen.

[3] = system: YAC-1 cells; test: In vitro potentiation of murine natural killer cell activity (mouse spleen cells, 51Cr release); assay type: cell-based
Description: After incubation the cytotoxicity of the treated and untreated cells was determined against YAC-1 cells.
^a Spleen cells from mice were treated with 0.05 mM concentration of
amino acids and 5 × 10^-5 M Mercaptoethanol. The effector cells
were then tested for their cytotoxic activity against YAC1 target cells i
4 hr ^51 Cr release assay.
^a Spleen cells from mice were incubated in the absence and presence
of various compounds. After incubation, cells were suspended in complete
medium and then their cytotoxic activity was determined against YAC1
target cells as described in the text

[4] = system: Mouse Cytomegalovirus; test: Antiviral activity against mouse cytomegalovirus infection in mice
[5] = system: Influenza B Virus; test: Antiviral activity against Influenza B virus infection in mice; assay type: in vivo, mouse; conditions: for Mean Survival Time: once a day at -2 h and days 2, 4, 6
Description: Compound 7 was tested therapeutically against Influenza B Virus Infection in Mice. In addition to a saline control Ribavirin, a known antiviral, was utilized for test purposes.
hours previrus inoculation.
^c p < .001 twotailed ttest.

[6] = system: YAC1 target cells; test: Natural killer cell activity in nude/nude mice (in vivo treatment, spleen cells); set-up: species or system mouse
Description: Compound 7 was also able to potentiate markedly the natural killer cell activity in T cell deficient (nude/nude) mice as is shown in Table 6.
^a Three mice in each group received saline or compound 7 through i.p
route, spleens were removed one day after the treatment, cells were
cells. Each value represents average ±SD cytotoxic activity of three

[7] = system: P388; test: Mean life span and viable tumor cells of P388 inoculated mice, by delivery schedule; assay type: in vivo, mouse; conditions: qd; for Postinoculation Life Span: pooled 37, 62 or 104 mg/kg/injection; for Change in Life Span / Viable Cells Day 6: pooled doses
Description: In this example as summarized in table 30, different drug delivery regimen were utilized for compound 7 against P388 in the mouse and the postinoculation life span, the change in life span and the number of viable tumor cells at day 6 measured. For this test the data shown are pooled by schedule without regard for dosage. Each treatment group included a total of 15 mice divided into sub-groups of 5 mice treated respectively with 37, 62 or 104 mg/kg/injection of drug per sub-group. After treatment the test animals were monitored for survival.
^a P388 ascites cells (1 × 10^6) were implanted ip in
BDF1 female mice on day 0, and ip bolus injections of drug were
delivered once daily on the days indicated. The drug was delivered on the
basis of 0.01 ml/g mouse weight. Control mice received a 0.09% solution o
NaCl delivered on the same basis.

[8] = system: YAC1 target cells; test: Natural killer cell activity in old C57BL/6J mice (in vivo treatment, spleen cells); set-up: species or system mouse
Description: For this test compound 7 was injected at a dose of 1.67 mg per mouse and 3.34 mg per mouse and after a day the natural killer cell activity of the spleen cells was determined.
i.p. route. Spleens after treatment were removed, cells were isolated and […]

## Nc1nc2c(sc(=O)n2[C@@H]2O[C@H](CO)[C@@H](O)[C@H]2O)c(=O)[nH]1 [Compound 7, 5-Amino-3-β-D-ribofuranosylthiazolo[4,5-d]pyrimidine-2,7(6H)-dione]
[1]; 37 mg/kg ip qd days 1-20
  Increased Life Span: 7.0 % of Control
  Postinoculation Life Span: 32.33 ± 3.67 days
[1]; 62 mg/kg ip qd days 1-20
  Increased Life Span: 19.8 % of Control
[1]; 62 mg/kg ip qd days 1-20, p 0.01
  Postinoculation Life Span: 36.33 ± 0.82 days
[1]; 104 mg/kg ip qd days 1-20
  Increased Life Span: 20.3 % of Control
[1]; 104 mg/kg ip qd days 1-20, p < 0.03
  Postinoculation Life Span: 36.50 ± 4.55 days
[2]
  antiviral activity against Friend Leukemia virus induced spleenomegaly: little or no antiviral activity
[3]; 0.05 mM, 20 to 44 h
  natural killer cell activity compared to Poly I:C: increased activity compared to Poly I:C
[3]; C57BL/6J spleen cells, treatment 0 h, compound 7 at 0.05 mM
  % Natural Killer Cell Cytotoxicity: 18%
[3]; C57BL/6J spleen cells, treatment 20 h, compound 7 at 0.05 mM
  % Natural Killer Cell Cytotoxicity: 35% and 25%
[3]; C57BL/6J spleen cells, treatment 44 h, compound 7 at 0.05 mM
  % Natural Killer Cell Cytotoxicity: 34% and 22%
[3]; CBA/CaJ spleen cells, treatment 0 h, compound 7 at 0.05 mM
  % Natural Killer Cell Cytotoxicity: 15% and 23%
[3]; CBA/CaJ spleen cells, treatment 20 h, compound 7 at 0.05 mM
  % Natural Killer Cell Cytotoxicity: 34% and 62%
[3]; CBA/CaJ spleen cells, treatment 44 h, compound 7 at 0.05 mM
  % Natural Killer Cell Cytotoxicity: 31% and 44%
[3]; Table 21, 0.05 mM
  % Natural Killer Cell Cytotoxicity: 34.5% and 25% and 28%
[4]; 50 mg/kg/day, once a day at -2 h and days 2, 4, 6 (therapeutic)
  Mean Survival Time: 6.3 ± 1.1 days
[4]; 50 mg/kg/day, single dose 24 h pre-virus (prophylactic)
  Mean Survival Time: 6.5 ± 0.8 days
[4]; 100 mg/kg/day, once a day at -2 h and days 2, 4, 6 (therapeutic)
  Mean Survival Time: 6.0 ± 0.8 days
[4]; 100 mg/kg/day, single dose 24 h pre-virus (prophylactic)
  Mean Survival Time: 7.0 ± 1.4 days
[4]; 200 mg per kg, prophylactic mode
  cure: 100%
[4]; 200 mg/kg/day, half-daily doses 24 and 16 h pre-virus (prophylactic)
  Mean Survival Time: > 21 days
[5]; 50 mg/kg/day
  Mean Survival Time: 6.4 ± 1.5 days
[5]; 100 mg/kg/day
  Mean Survival Time: 6.6 ± 1.1 days
[5]; Table 12
  efficacy against influenza B (in words): efficacy between saline, having no antiviral activity against influenza, and Ribavirin
[5]; further test
  antiviral activity against influenza B virus, further test: little or no antiviral activity
[6]; 1.67 mg i.p., E:T 50:1
  % Natural Killer Cell Cytotoxicity: 43 ± 12%
[6]; 1.67 mg i.p., E:T 100:1
  % Natural Killer Cell Cytotoxicity: 56 ± 12%
[6]; 1.67 mg i.p., E:T 150:1
  % Natural Killer Cell Cytotoxicity: 61 ± 14%
[6]; 3.34 mg i.p., E:T 50:1
  % Natural Killer Cell Cytotoxicity: 38 ± 6%
[6]; 3.34 mg i.p., E:T 100:1
  % Natural Killer Cell Cytotoxicity: 56 ± 6%
[6]; 3.34 mg i.p., E:T 150:1
  % Natural Killer Cell Cytotoxicity: 61 ± 12%
[6]; both doses tested
  increase with respect to saline control: over two fold
[7]; day 2,4
  Postinoculation Life Span: 8.73 ± 0.59 days
  Change in Life Span: 7 % of Control
  Viable Cells Day 6: 66 % of Control
[7]; day 2-6, p < 0.001
  Postinoculation Life Span: 9.13 ± 0.52 days
[7]; day 2-6
  Change in Life Span: 12 % of Control
  Viable Cells Day 6: 49 % of Control
[7]; day 2
  Postinoculation Life Span: 8.60 ± 0.51 days
  Change in Life Span: 5 % of Control
  Viable Cells Day 6: 73 % of Control
[8]; 8 month old mice, 1.67 mg i.p., E:T 50:1
  % Natural Killer Cell Cytotoxicity: 14%
[8]; 8 month old mice, 1.67 mg i.p., E:T 100:1
  % Natural Killer Cell Cytotoxicity: 19%
[8]; 8 month old mice, 1.67 mg i.p., E:T 150:1
  % Natural Killer Cell Cytotoxicity: 23%
[8]; 8 month old mice, 3.34 mg i.p., E:T 50:1
  % Natural Killer Cell Cytotoxicity: 17%
[8]; 8 month old mice, 3.34 mg i.p., E:T 100:1
  % Natural Killer Cell Cytotoxicity: 28%
[8]; 8 month old mice, 3.34 mg i.p., E:T 150:1
  % Natural Killer Cell Cytotoxicity: 38%
[8]; 8 week old mice, 1.67 mg i.p., E:T 50:1
  % Natural Killer Cell Cytotoxicity: 15%
[8]; 8 week old mice, 1.67 mg i.p., E:T 100:1
  % Natural Killer Cell Cytotoxicity: 20%
[8]; 8 week old mice, 1.67 mg i.p., E:T 150:1
  % Natural Killer Cell Cytotoxicity: 24%
[8]; 8 week old mice, 3.34 mg i.p., E:T 50:1
  % Natural Killer Cell Cytotoxicity: 17%
[8]; 8 week old mice, 3.34 mg i.p., E:T 100:1
  % Natural Killer Cell Cytotoxicity: 27%
[8]; 8 week old mice, 3.34 mg i.p., E:T 150:1
  % Natural Killer Cell Cytotoxicity: 31%
